Data on one sequence can be found in US7084239B1, “Cancer peptides of NY-ESO-1/CAG-3” (The United States of America as represented by the …, priority 1997, dated 2006).

Format in all cases: cell-based, human
Assay [1] concerns CTL clone 2. As to the kind of experiment: T cell recognition (GM-CSF release) of peptide-pulsed EBV B cells by CTL clone 2. Conditions: peptide pulsed onto 1510EBV or 586EBV B cells. An excerpt: (§1) FIGS. 7A–7C. An alternative open reading frame of the NY-ESO-1 gene and antigenic peptides recognized by CTL. FIG. 7A. Identification of antigenic peptides from the ORF2. Thirty peptides were synthesized based on all potential ORFs and screened. Representative data are shown here. Seven peptides derived from ORF2 (see FIG. 3A) were pulsed on HLA-A31 positive 1510EBV B cells and tested for T cell recognition based on GM-CSF release ([…], SEQ ID NO: 123; […], SEQ ID NO: 124; […], SEQ ID NO: 125; […], SEQ ID NO: 46; […], SEQ ID NO: 47; […], SEQ ID NO: 126; and […], SEQ ID NO: 127). 1510 EBV alone was used as a negative control. FIG. 7B. 1510EBV B cells were labeled with chromium for 2 h. The ESORF2-10-18 peptide was then pulsed on the chromium-labeled […] (solid square) and HLA-A31-negative 1102EBV (open circle) at different concentrations. 1510EBV pulsed with ESO10-53, which was recognized by CTL clone 5, was used for the specificity control (solid triangle). After peptide incubation and three washes, cytolysis of target cells by CTL-clone 2 was determined in a 4-h chromium release assay at an E:T ratio of 20:1. FIG. 7C. Several tumor lines and fresh breast tumors were tested for recognition by CTL clone 2 to determine whether the ORF2 is translated in different tumors. 1510EBV B cells pulsed with […] (SEQ ID NO: 25) (ESO10-53), […] (SEQ ID NO: 47) (ORF2-10-18), or alone were included to evaluate the reactivity and specificity of CTL clone 2 and 5. Expression of HLA-A31 on the tumor cells is indicated.
(§2) DNA transfection and GM-CSF assay were done as previously described (Wang, R. F., P. F. Robbins, Y. Kawakami, X. Q. Kang, and S. A. Rosenberg, 1995, J. Exp. Med. 181:799–804). Briefly, […] of DNA carrying a different fragment and 50 ng of the HLA-A31 DNA were mixed with 2 μl of lipofectamine in 100 μl of serum-free DMEM for 15–45 min. The DNA/lipofectamine mixture was then added to the COS-7 (5×10^4) cells and incubated overnight. The following day, cells were washed twice with DMEM medium. TIL586, CTL clone 5 or CTL clone 10 were added at a concentration of 5×10^4 cells/well in AIM-V medium containing 120 IU/ml of IL-2. After 18–24 h incubation, 100 μl of supernatant was collected and GM-CSF was measured in a standard ELISA assay (R+D Systems, Minneapolis, Minn.). […]
CTL clone 5 and TIL1244 were used for the specificity controls. […] To test the hypothesis that CTL may recognize a peptide from a gene product translated from an alternative open reading frame of the same gene, synthetic peptides were made with HLA-A31 Binding motif on the basis of amino acid sequence predicted from the second open reading frames (ORF2) (FIG. 3A). […]

Assay [2] concerns CTL clone 2. As to the kind of experiment: Chromium release cytolysis of peptide-pulsed target cells by CTL clone 2. As to conditions: peptide titration, 4-h chromium release, E:T ratio of 20:1 (FIG. 7B).
Text: as §1, with “Expression of HLA-A31 on the tumor cells is indicated.” left out
Cytolytic assay was done as previously described (Kawakami, Y et al., 1994, Proc. Natl. Acad. Sci. USA 91:6458–62). […] The cells were washed again, counted, and then mixed with TIL586 or CTL clone 5 at the indicated ratio of effector: targets (E:T). Chromium release was measured after 4 h incubation. […] Percentage of specific lysis was determined from the equation (A−B)/(C−B)×100 where A is lysis of 586EBV B cells by TIL586 or clone 5 in the presence of a peptide, B is spontaneous release from 586EBV B cells in presence of the same peptide but in the absence of effector cells, and C is the maximum chromium release. […]

For assay [3], the system named is CTL clone 14. Briefly: T cell recognition of peptide-pulsed EBV B cells by CTL clone 14. As to conditions: peptide pulsed onto EBV B cells.
Text: FIGS. 6A–6H. CTL clones 2 and 14 recognize the NY-ESO-1 gene, but not the ESO10-53 peptide derived from the NY-ESO-1 protein. CTL clones 2, 14 and 5 recognized NY-ESO-1 when cotransfected with HLA-A31 cDNA into COS-7 (FIG. 6A, C, E and G). TIL1244, which recognized TRP-2 But not NY-ESO-1, was used as a specificity control. FIGS. 6B, D, F and H. CTL clones 2, 5, 14, and TIL1244 recognized 586mel. […] TIL1244 recognized the TRP197-205 peptide derived from TRP-2, 586EBV B cells alone or pulsed with the ORF3P peptide from an alternative reading frame of TRP1 were negative controls. 397mel is an HLA-A31-negative, NY-ESO-1-positive tumor line.
as §2, with “TIL586, CTL clone 5 or CTL clone 10 were added at a concentration of 5×10^4 cells/well in AIM-V medium containing 120 IU/ml of IL-2.” left out

On to “ASGPGGGAPR (listed as Homo sapiens) [ESO10-53]”, for which the “Recognition by CTL clone 2, in words” value is reported as “did not recognize” in assay [1] and “failed to recognize” in assay [1] (listed as ESO 10-53). In addition, the “Lysis of peptide-pulsed 1510EBV by CTL clone 2” value in assay [2] is recorded as “failed to lyse”. The “Recognition by CTL clone 14, in words” value in assay [3] is recorded as “did not recognize”; in assay [3] (listed as ESO 10-53), “failed to recognize”.
